Test system: participants with SSc-RP
Test: SHAQ - Alternative Disability Index
Type: in vivo, human
Design: key to SHAQ Alternative Disability Index, In-Clinic Visit (Day 12), Median: mean of 8 category scores, 0 = no difficulty to 3 = unable to do
Conditions: for % change in Alternative Disability Index: SHAQ, mITT Part A; for alternative disability index, Change from Baseline, Mean / alternative disability index, Change from Baseline, Median / alternative disability index, Percent Change from Baseline, Mean / alternative disability index, Percent Change from Baseline, Median / alternative disability index, In Clinic Visit (Day 12), Mean / alternative disability index, In Clinic Visit (Day 12), Median: Modified ITT Population-Part A, tadalafil 5 mg, alone or combined as labelled
Excerpt: The SHAQ is used to calculate a Disability Index to assess the participant qualify of life. The eight categories assessed by the Disability Index are 1) dressing and grooming, 2) arising, 3) eating, 4) walking, 5) hygiene, 6) reach, 7) grip, and 8) common daily activities. For each of these categories, patients report the amount of difficulty they have in performing two or three specific activities.
There are four possible responses for the Disability Index questions: • Without any difficulty=0 • With some difficulty=1 • With much difficulty=2 • Unable to do=3 • The highest score reported by the patient for any component question of the eight categories determines the score for that category. • If a component question is left blank or the response is too ambiguous to assign a score, then the score for that category is determined by the remaining completed question(s). • If all component questions are blank or if more than one answer is given, then follow up with the respondent is required. • If the respondent's mark is between the response columns, then move it to the closest one. If it's directly between the two, move it to the higher one.
The aid and device variables are not used to calculate the alternative disability index; it is calculated by adding the scores for each of the categories and dividing by the number of categories answered. This gives a score in the 0 to 3 range.

[1] = Any Cilnidipine (N = 17), Day 12, PP Population, Part A
[2] = Cilnidipine 10 mg, SSc patients, PP, Part A
[3] = Cilnidipine 20 mg, SSc patients, PP, Part A
[4] = Pooled Cilnidipine 10 mg and Cilnidipine 10 mg + Tadalafil 5 mg (N = 9), Day 12, PP Population, Part A
[5] = Pooled Cilnidipine (N = 8), Day 12, PP Population, Part A

Question: With COCCOC(=O)C1=C(C)NC(C)=C(C(=O)OC/C=C/c2ccccc2)C1c1cccc([N+](=O)[O-])c1 (stereo not shown) [Cilnidipine] as the compound, how does the “SHAQ Alternative Disability Index, Change from Baseline, Median” value [1] read?
Answer: 0.000

Question: And the “SHAQ Alternative Disability Index, In-Clinic Visit (Day 12), Mean (SD)” value [1]?
Answer: 0.450 (0.4926)

Question: And the “SHAQ Alternative Disability Index, In-Clinic Visit (Day 12), Median” value [1]?
Answer: 0.250

Question: What about the “SHAQ Alternative Disability Index, Percent Change from Baseline, Mean (SD)” value [1] of the same compound?
Answer: 21.32 (100.525) %

Question: And the “SHAQ Alternative Disability Index, Percent Change from Baseline, Median” value [1]?
Answer: −10.00%

Question: And the “SHAQ Alternative Disability Index, Change from Baseline, Max” value [2]?
Answer: 0.38

Question: And the “SHAQ Alternative Disability Index, Change from Baseline, Mean” value [2]?
Answer: 0.063

Question: And the “SHAQ Alternative Disability Index, Change from Baseline, Median” value [2]?
Answer: 0.000

Question: What about the “SHAQ Alternative Disability Index, Change from Baseline, Min” value [2] of the same compound?
Answer: −0.13,

Question: And the “SHAQ Alternative Disability Index, Change from Baseline, Q1” value [2]?
Answer: −0.063,

Question: And the “SHAQ Alternative Disability Index, Change from Baseline, Q3” value [2]?
Answer: 0.188

Question: What about the “SHAQ Alternative Disability Index, Day 12, Max” value [2] of the same compound?
Answer: 1.25

Question: What about the “SHAQ Alternative Disability Index, Day 12, Mean” value [2] of the same compound?
Answer: 0.563

Question: And the “SHAQ Alternative Disability Index, Day 12, Median” value [2]?
Answer: 0.500

Question: And the “SHAQ Alternative Disability Index, Day 12, Min” value [2]?
Answer: 0.00,

Question: What about the “SHAQ Alternative Disability Index, Day 12, Q1” value [2] of the same compound?
Answer: 0.000,

Question: What about the “SHAQ Alternative Disability Index, Percent Change from Baseline, Max” value [2] of the same compound?
Answer: 42.9

Question: What about the “SHAQ Alternative Disability Index, Percent Change from Baseline, Mean” value [2] of the same compound?
Answer: 15.87

Question: What about the “SHAQ Alternative Disability Index, Percent Change from Baseline, Median” value [2] of the same compound?
Answer: 15.87

Question: What about the “SHAQ Alternative Disability Index, Percent Change from Baseline, Min” value [2] of the same compound?
Answer: −11.1,

Question: What about the “SHAQ Alternative Disability Index, Percent Change from Baseline, Q1” value [2] of the same compound?
Answer: −11.11,

Question: What about the “SHAQ Alternative Disability Index, Percent Change from Baseline, Q3” value [2] of the same compound?
Answer: 42.86

Question: And the “% change in Alternative Disability Index” value (Cilnidipine 20 mg (n = 3))?
Answer: −42%

Question: What about the “SHAQ Alternative Disability Index, Change from Baseline, Max” value [3] of the same compound?
Answer: 0.25

Question: What about the “SHAQ Alternative Disability Index, Change from Baseline, Mean” value [3] of the same compound?
Answer: 0.000

Question: What about the “SHAQ Alternative Disability Index, Change from Baseline, Median” value [3] of the same compound?
Answer: −0.063

Question: And the “SHAQ Alternative Disability Index, Change from Baseline, Min” value [3]?
Answer: −0.13,

Question: And the “SHAQ Alternative Disability Index, Day 12, Max” value [3]?
Answer: 0.50

Question: What about the “SHAQ Alternative Disability Index, Day 12, Mean” value [3] of the same compound?
Answer: 0.219

Question: And the “SHAQ Alternative Disability Index, Day 12, Median” value [3]?
Answer: 0.188

Question: What about the “SHAQ Alternative Disability Index, Day 12, Min” value [3] of the same compound?
Answer: 0.00,

Question: And the “SHAQ Alternative Disability Index, Day 12, Q1” value [3]?
Answer: 0.063,

Question: And the “SHAQ Alternative Disability Index, Day 12, Q3” value [3]?
Answer: 0.375

Question: What about the “SHAQ Alternative Disability Index, Percent Change from Baseline, Max” value [3] of the same compound?
Answer: 100.0

Question: And the “SHAQ Alternative Disability Index, Percent Change from Baseline, Mean” value [3]?
Answer: 5.56

Question: And the “SHAQ Alternative Disability Index, Percent Change from Baseline, Median” value [3]?
Answer: −33.33

Question: And the “SHAQ Alternative Disability Index, Percent Change from Baseline, Min” value [3]?
Answer: −50.0,

Question: What about the “SHAQ Alternative Disability Index, Percent Change from Baseline, Q1” value [3] of the same compound?
Answer: −50.00,

Question: What about the “SHAQ Alternative Disability Index, Percent Change from Baseline, Q3” value [3] of the same compound?
Answer: 100.00

Question: And the “alternative disability index, Change from Baseline, Mean” value (Day 12, dose cilnidipine 10 mg)?
Answer: 0.063

Question: And the “alternative disability index, Change from Baseline, Median” value (Day 12, dose cilnidipine 10 mg)?
Answer: 0.000

Question: What about the “alternative disability index, Percent Change from Baseline, Mean” value (Day 12, dose cilnidipine 10 mg) of the same compound?
Answer: 15.87%

Question: What about the “alternative disability index, Percent Change from Baseline, Median” value (Day 12, dose cilnidipine 10 mg) of the same compound?
Answer: 15.87%

Question: And the “alternative disability index, Change from Baseline, Mean” value (Day 12, dose cilnidipine 20 mg)?
Answer: −0.083

Question: What about the “alternative disability index, Change from Baseline, Median” value (Day 12, dose cilnidipine 20 mg) of the same compound?
Answer: −0.125

Question: And the “alternative disability index, Percent Change from Baseline, Mean” value (Day 12, dose cilnidipine 20 mg)?
Answer: −41.67%

Question: What about the “alternative disability index, Percent Change from Baseline, Median” value (Day 12, dose cilnidipine 20 mg) of the same compound?
Answer: −41.67%

Question: What about the “alternative disability index, In Clinic Visit (Day 12), Mean” value (dose cilnidipine 10 mg) of the same compound?
Answer: 0.563

Question: And the “alternative disability index, In Clinic Visit (Day 12), Median” value (dose cilnidipine 10 mg)?
Answer: 0.500

Question: And the “alternative disability index, In Clinic Visit (Day 12), Mean” value (dose cilnidipine 20 mg)?
Answer: 0.125

Question: And the “alternative disability index, In Clinic Visit (Day 12), Median” value (dose cilnidipine 20 mg)?
Answer: 0.125

Question: What about the “SHAQ Alternative Disability Index, Change from Baseline, Mean” value [4] of the same compound?
Answer: 0.021

Question: What about the “SHAQ Alternative Disability Index, Percent Change from Baseline, Median” value [4] of the same compound?
Answer: −10.00%

Question: And the “SHAQ Alternative Disability Index, Change from Baseline, Mean” value (Pooled Cilnidipine 20 mg and Cilnidipine 20 mg + Tadalafil 5 mg (N = 8), Day 12, PP Population, Part A)?
Answer: −0.036

Question: What about the “SHAQ Alternative Disability Index, Change from Baseline, Mean” value [5] of the same compound?
Answer: 0.031

Question: And the “SHAQ Alternative Disability Index, Change from Baseline, Mean (SD)” value [5]?
Answer: 0.031 (0.1860)

Question: What about the “SHAQ Alternative Disability Index, In-Clinic Visit (Day 12), Mean (SD)” value [5] of the same compound?
Answer: 0.391 (0.4884)

Question: What about the “SHAQ Alternative Disability Index, Percent Change from Baseline, Mean (SD)” value [5] of the same compound?
Answer: 9.68 (61.446) %

Question: And the “SHAQ Alternative Disability Index, Percent Change from Baseline, Median” value [5]?
Answer: −11.11%

Question: What about the “% change in Alternative Disability Index” value (Pooled Cilnidipine (n = 7)) of the same compound?
Answer: −13%

Question: What about the “% Δ from baseline, alternative disability mean” value (Pooled cilnidipine (n=4)) of the same compound?
Answer: −12.9%
